For one assay, the system named is MCF-7 MT-ERα Y537S cells. The assay is classed as cell-based. Particulars: 200 nM.
The test system of the next assay is OCa cells. Kind of assay: MTT assay in OCa cells. The assay is classed as cell-based. On the procedure:
FIGS. 12A-12D show the effect of TK208 against ovarian cancer cell lines ES2 (FIGS. 12A & 12B) and SKOV3 (FIGS. 12C & 12D).
FIGS. 42A-D: OCa cells were treated with ERX-11 (FIG. 42A) or ERX-208 (FIG. 42B). Primary OCa cells derived from ascites were treated with ERX-208 for 72 h (FIG. 42C) and cell viability by MTT assays. (FIG. 42D) Effect of ERX-208 on viability of IOSE cells was measured using MTT assays and TOV21G was used as +ve control.
ERX-208. […] Functionally, ERX-208 causes growth inhibition of OCa cells, as noted by MTT assays using five established OCa cells (ES2, SKOV3, A2780, TOV21G, TOV112D) and five primary OCa cells derived from HGSOC patient ascites (AS21, AS23, AS25, AS28, AS29) (FIGS. 42B-C). […] The inventor noted an IC50 of ˜50-100 nM for ERX-208 both for inducing ERS and in reducing the growth of OCa cells.
Background: Formazan colour is commonly taken as a measure of viable cells.

Assay [1] has as its system MCF-7 MT-ERα Y537S and D538G cells. The assay is classed as cell-based. Particulars: comparators at 200 nM in MCF-7 MT-ERα Y537S cells.
Assay [2] deals with MT-ERα. As to the kind of experiment: MT-ERα protein levels. The assay is classed as cell-based.
The target in a further assay is T1, vitamin D receptor (VDR) (Homo sapiens, UniProt P11473).
T1 construct: endogenous in cells; host or cells: cancer cells
As to the kind of experiment: Vitamin D receptor inhibition. The assay is classed as cell-based.

A further assay concerns the target T2, lipase activity of LIPA (Homo sapiens, UniProt P38571).
T2 construct: lipase activity of parental SUM-159 (WT) and SUM-159 cells with LIPA KO; endogenous in cells; host or cells: SUM-159 (parental)
Kind of assay: Lipase activity assay. Particulars: SUM-159 cells. The assay is classed as biochemical. From the text:
FIGS. 39A-N: (FIGS. 39A-E) Predicted binding mode of ERX-41 (colored in green) on the human lysosomal acid lipase (LAL, PDB code: 6V7N, LXXLL (SEQ ID NO: 1) domain colored in orange). (FIG. 39F) PDB structure of LAL protein showing relative positions of the catalytic domain (with H274Y MT) and the LXXLL (SEQ ID NO: 1) domain (L242P MT). (FIG. 39G) Evaluation of the effect of ERX-41 and lalistat (known lipase inhibitor) on lipase activity of parental SUM-159 (WT) and SUM-159 cells with LIPA KO. (FIG. 39H) Evaluation of basal lipase activity in parental SUM-159 (WT), SUM-159 cells with LIPA KO (KO), SUM-159 cells with LIPA KO and with reconstitution of either WT LIPA (KO+WT), H274Y MT-LIPA (KO+H274Y), DLXXLL (SEQ ID NO: 2) MT-LIPA (KO+DLXXLL (SEQ ID NO: 2)) or L242P MT-LIPA (KO+L242P). Protein expression of LAL and control vinculin in these cells are shown below (FIG. 391) Cellular lysates from described SUM-159 cells were incubated with biotinylated ERX-11 or biotinylated ERX-41 and then subject to a streptavidin column. Elutants were then evaluated for LIPA pulldown by western blotting. (FIG. 39J) Dose response curve to increasing concentrations of ERX-41 in described SUM-159 cells. (FIGS. 39K-M) Effect of vehicle or 1 μM ERX-41 on induction of UPR genes at the protein level (FIG. 39K) or RNA level (FIGS. 39L-M). […]

For assay [3], the system named is MT-ERα. As to the kind of experiment: RNA sequencing of MT-ERα transcriptional programme. As to conditions: MCF-7 and ZR-75 cells expressing D538G and Y537S MT-ERα. The assay is classed as cell-based. From the text: FIGS. 66A-D: (FIG. 66A) Effect of ERX-315 on ERa DNA binding on the promoters of 5 canonical ERα-regulated genes with ERa ChIP in MCF-7 expressing D538G MT-ERα in the absence and presence of estradiol.
Prior studies have shown that MT-ERα drives a canonical ERα transcriptional programme, both in the absence and presence of estradiol. RNA sequencing studies indicate that ERX-315 alters the transcriptional heatmap in MCF-7 and ZR-75 cells expressing D538G and Y537S MT-ERα (FIG. 66B, data shown for MCF-7 cells expressing D538G MT-ERα).

In another assay the test system is breast cancer cells. Kind of assay: Growth inhibition of breast cancer cells. The assay is classed as cell-based. As to conditions: relative to ovarian cancer cells. From the text: (§1) In addition, another tris-benzmaide compound TK208 was synthesized and tested against breast cancer and ovarian cancer cell lines (FIGS. 10-15). […] These compounds (e.g., TK41, TK208, TK308 (FIG. 21), TK309 (FIG. 22), TK314, TK315) are extremely potent compounds that inhibit tumor growth and kill breast and ovarian cancer cells and as such, they are superb therapeutic candidates for such diseases.

For assay [4], the system named is WT- and MT-ERα-driven cell lines (MCF-7, ZR-75). Kind of assay: Anti-proliferative activity in WT- and MT-ERα-driven cell lines. The assay is classed as cell-based.
The test system of another assay is ovarian cancer cells. As to the kind of experiment: Growth inhibition of ovarian cancer cells. The assay is classed as cell-based.
Description: FIGS. 10A & 10B show effects of TK208 against cancer cells.
as §1

Assay [5] has as its system BC cells expressing MT-ERα (MCF-7, ZR-75, T47-D). Kind of assay: Cell titer glo antiproliferative assay in MT-ERα BC cells. The assay is classed as cell-based. As to conditions: T47-D Y537S MT. From the text:
FIG. 52: Comparative efficacy of TX-542 and SERDs in BC cells expressing WT and/or MT ERα: Using CRISPR-Cas9, both copies of WT ERα genes were knocked out in ZR-75 and T47-D, while only one copy of WT Era was knocked out in MCF-7 cells. Following knockout of WT ERα clones with stable expression of either Y537S ERα MT or the D538G ERα MT were selected. […] ERα-negative TNBC cells (SUM-159 and MDA-MB-231) were used as controls. Dose response curves were generated for ERX-11, TX-542 and SERDs using cell titer glo assays. IC50 values for each cell line and drug were calculated and tabulated. Tam=tamoxifen, ICI=fulvestrant, GDC-0810=Genentech SERD, AZD-9496 Astra Zeneca SERD, RAD-1901=Radius SERD, Palbo=Palbociclib. IC50 values<50 nM are shown in red.
TX-542. TX-542 was potent (IC50˜20-50 nM) as an antiproliferative agent against expressing MT-ERα, both in genetically modified MCF-7 cells with one WT-ERα allele and one MT-ERα allele introduced by CRISPR and genetically modified ZR-75 or T47-D cells in which both copies of WT-ERα alleles were replaced using CRISPR with MT-ERα. TX-542 had no activity against ER-null (SUM-159 or MDA-MB-231 cells) or non-tumorigenic breast epithelial cells, such as human mammary epithelial cells (HMEC). […] In addition, these agents are not able to consistently target all the MT-ERα forms in distinct genetic contexts, as shown in FIG. 52 and as reported by others.

The subject of a further assay is ZR-75 MT-ERα cells. Kind of assay: Colony formation, ZR-75 MT-ERα. The assay is classed as cell-based. On the procedure: The 200 nM dose for these drugs reflects the level at which each of these drugs has a significant effect on spheroid formation in the MCF-7 WT-ERa cells. Taken together, these studies indicate that TX-542 has significant activity against both WT-ERα and MT-ERα driven ERα+ BC cell lines and is a worthwhile candidate for further study.

The values that follow come from patent publication US12275685B2, “Oligo-benzamide analogs and their use in cancer treatment” (Board of Regents, The University of Texas System, priority 2018, dated 2025).

T2 sequence (P38571 77-399): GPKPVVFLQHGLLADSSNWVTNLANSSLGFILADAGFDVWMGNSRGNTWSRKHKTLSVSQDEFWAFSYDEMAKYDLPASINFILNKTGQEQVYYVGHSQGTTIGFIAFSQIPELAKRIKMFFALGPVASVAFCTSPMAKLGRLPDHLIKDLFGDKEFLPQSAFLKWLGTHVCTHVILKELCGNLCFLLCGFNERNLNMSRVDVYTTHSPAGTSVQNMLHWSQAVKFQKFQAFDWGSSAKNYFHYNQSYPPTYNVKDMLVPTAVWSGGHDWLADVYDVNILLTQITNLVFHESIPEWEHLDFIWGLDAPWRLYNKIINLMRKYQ
T1 sequence (P11473 whole entry): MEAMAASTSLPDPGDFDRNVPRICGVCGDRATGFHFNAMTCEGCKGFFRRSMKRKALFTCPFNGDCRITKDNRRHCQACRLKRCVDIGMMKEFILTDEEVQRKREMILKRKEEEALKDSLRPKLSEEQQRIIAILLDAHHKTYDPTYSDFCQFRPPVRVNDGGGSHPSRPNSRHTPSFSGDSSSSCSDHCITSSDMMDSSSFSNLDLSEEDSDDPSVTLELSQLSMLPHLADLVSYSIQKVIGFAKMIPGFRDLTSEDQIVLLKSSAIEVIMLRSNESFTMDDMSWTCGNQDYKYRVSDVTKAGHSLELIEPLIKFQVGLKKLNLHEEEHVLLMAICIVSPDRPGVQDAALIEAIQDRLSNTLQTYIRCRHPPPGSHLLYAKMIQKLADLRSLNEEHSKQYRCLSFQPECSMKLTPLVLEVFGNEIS

Turning to `CC(C)COc1cc(C(N)=O)ccc1NC(=O)c1ccc(NC(=O)c2ccc([N+](=O)[O-])c(OCCO)c2)c(OCC(C)C)c1` [ERX-11, reference compound], the “soft agar colony formation” value in the assay on MCF-7 MT-ERα Y537S cells was “neither the parental ERX-11, tamoxifen nor GDC0810 SERD (at the same concentrations) had an effect on colony formation”. The “activity against OCa cells / cell viability” value in the assay with OCa cells is “limited activity”. Further, the “spheroid size or architecture” value in [1] is recorded as “neither ERX-11, palbociclib, GDC-0810 nor AZD-9496, tamoxifen nor fulvestrant (at 200 nM) significantly disrupted spheroid size or architecture”.
Consider `CC/C(=C(/c1ccc(/C=C/C(=O)O)cc1)c1ccc2[nH]ncc2c1)c1ccc(F)cc1Cl` [GDC-0810], for which the “soft agar colony formation” value in the assay with MCF-7 MT-ERα Y537S cells is listed as “neither the parental ERX-11, tamoxifen nor GDC0810 SERD (at the same concentrations) had an effect on colony formation”. The “spheroid size or architecture” value in assay [1] is “neither ERX-11, palbociclib, GDC-0810 nor AZD-9496, tamoxifen nor fulvestrant (at 200 nM) significantly disrupted spheroid size or architecture”. In the assay with MT-ERα [2], the “ability to decrease MT-ERα protein levels” value is recorded as “neither fulvestrant nor GDC-0810 were able to decrease MT-ERα protein levels”.
For `CC(C)COc1cc(C(=O)Nc2ncc[nH]2)ccc1NC(=O)c1ccc(NC(=O)c2ccc([N+](=O)[O-])c(OCCO)c2)c(OCC(C)C)c1` [YL144], the “inhibition of VDR” value at vitamin D receptor (VDR) is recorded as “high potency”.
As to `O=C(Oc1nsnc1N1CCCCC1)N1CCCCC1` [lalistat, reference compound], the “effect on lipase activity of LIPA” value at lipase activity of LIPA was “attenuated lipase activity”.
For the compound `CC/C(=C(\c1ccccc1)c1ccc(OCCN(C)C)cc1)c1ccccc1` [tamoxifen], in the assay on MT-ERα [3], the MT-ERα transcriptional programme entry was “neither tamoxifen nor ERX-314 is able to alter the ERα-regulated transcriptome”. The “soft agar colony formation” value in the assay on MCF-7 MT-ERα Y537S cells is reported as “neither the parental ERX-11, tamoxifen nor GDC0810 SERD (at the same concentrations) had an effect on colony formation”. In [1], the “spheroid size or architecture” value is reported as “neither ERX-11, palbociclib, GDC-0810 nor AZD-9496, tamoxifen nor fulvestrant (at 200 nM) significantly disrupted spheroid size or architecture”.
As a reminder, the IC50 is the concentration that gives 50% inhibition. Low readings indicate inhibition by little substance, high ones a need for much substance. As for `CC(C)COc1cc(C(=O)Nc2ccc(C(=O)N[C@H]3CC[C@H](C)CC3)cc2OCC(C)C)ccc1NC(=O)c1ccc(F)c(OCCO)c1` [TK314], in the assay on MT-ERα [3], the MT-ERα transcriptional programme result was “neither tamoxifen nor ERX-314 is able to alter the ERα-regulated transcriptome”. For the same compound, in the assay on breast cancer cells, the “activity against breast cancer cells” value was “significantly less activity against breast cancer cells”. This compound also registered an IC50 in assay [4] of 1500 to 5000 nM. For the same compound, in the assay on ovarian cancer cells, the IC50 was 10 to 50 nM and the “activity against ovarian cancer cells” value is “unique activity against ovarian cancer cells”.
As to `C[C@@H]1Cc2c([nH]c3ccccc23)[C@@H](c2c(F)cc(/C=C/C(=O)O)cc2F)N1CC(C)(C)F` [AZD-9496], the “activity against T47-D Y537S MT” value in assay [5] is recorded as “potent activity”. The “soft agar colony formation” value with MCF-7 MT-ERα Y537S cells is listed as “significantly affected colony formation”. In addition, the “colony formation in ZR-75 MT-ERα cells” value with ZR-75 MT-ERα cells is given as “activity was not seen”. Moreover, the “spheroid size or architecture” value in [1] is recorded as “neither ERX-11, palbociclib, GDC-0810 nor AZD-9496, tamoxifen nor fulvestrant (at 200 nM) significantly disrupted spheroid size or architecture”.
